From patent EP1695711A2, “Parenteral formulations comprising boronic acid species for selective thrombin inhibition” (TRIGEN LIMITED, priority 2002, dated 2004)
pIC50: −log10 of the molar value. Counter-ions that a name gives are not always drawn. Like-named read-outs stand apart in the source and are kept apart here. Values belong to the compound of their own block, whether it stands above or below them.

Key:
[1] = Stability: HPLC-PDA assay before and after drying; assay type: physicochemical; conditions: for Amount: 5 mg in 5 mL
Protocol: An assay of TRI 50c and its sodium and lysine salts before and after drying.
For sample analysis, 5 mg of dried and non-dried material was weighed in a 5 mL volumetric flask and dissolved in 1 mL acetonitrile and filled up with demineralised water to 5 mL.
The quantitative evaluation was performed using an HPLC-PDA method.

[2] = tested on: thrombin time and APTT; assay type: in vivo, beagle dogs; conditions: dog
Protocol: Plasma was prepared by centrifugation and frozen at minus 20°C pending analysis.

[3] = tested on: platelet procoagulant activity; test: Inhibition of platelet procoagulant activity; assay type: cell-based
Description: Platelet pro-coagulant activity may be observed as the increase, in rate of activation of prothrombin by factor Xa in the presence of factor Va upon the addition of platelets pretreated with thrombin, caused by thrombin alone, collagen alone or a mixture of thrombin and collagen. This property is due to an increase in anionic phospholipid on the surface of the platelet with concomitant release of microvesicle from the surface. This is an essential physiological reaction and people whose platelets have reduced ability to generate procoagulant activity (Scott syndrome) show an increased tendency for bleeding.
Washed platelets were treated with either 1.15nM thrombin, 23µg/ml collagen or a mixture of both at the same concentration at 37°C. TRI 50b was added either for 1 minute prior to the addition of activator or immediately after the incubation with activator. Platelet procoagulant activity was determined as described previously (Goodwin C A et al, Biochem J. 1995 8, 308: 15-21).

[4] = tested on: washed platelets; test: Aggregation of washed platelets; assay type: cell-based
[5] = tested on: platelet rich thrombus; test: Rabbit extracorporeal shunt model; assay type: in vivo, NZW rabbits; conditions: for THROMBUS WEIGHT AFTER 20 minute run: n=5
Description: The technique describes an animal model in which a platelet rich thrombus is produced. The activity of TRI 50b and heparin are compared.
The carotid artery and jugular vein of anaesthetised rabbits were used to create an extracorporeal circuit containing a suspended foreign surface (silk thread). Thrombus deposition is initiated by creation of high sheer stress turbulent arterial blood flow, platelet activation, followed by coagulation in the presence of thrombogenic surfaces. Histopathological studies have shown that the thrombus is platelet rich.
NZW rabbits (males 2.5-3.5 kg) were used. The animals were allowed food and water up to the induction of anaesthesia.
Animals were premedicated with […] (Hypnorm) 0.15 ml total by intramuscular injection. General anaesthesia was induced with methohexitone (10 mg/ml) to effect, followed by endotracheal intubation. Anaesthesia was maintained with isoflurane (1-2.0 %) carried in oxygen /nitrous oxide.
The animals were placed in dorsal recumbency and the ventral cervical region prepared for surgery. The left carotid artery and right jugular vein were exposed. The artery was cannulated with a large Portex® catheter (yellow gauge), cut to a suitable length. The vein was cannulated with a Silastic® catheter. The shunt comprised of a 5 cm length of 'auto analyser' line (purple /white gauge). Joins to the shunt on the arterial side were made with intermediate size Silastic® tubing. The shunt was filled with saline before exposure to the circulation. The right femoral artery was cannulated for the measurement of blood pressure.
The central section of the shunt contained a thread 3 centimetres in length. This consisted of 000 gauge Gutterman sewing silk so as to give four strands with a single knot at the end. (The knot section was outside the shunt).
Blood flow velocity was determined by use of 'Doppler' probes (Crystal Biotech). A silastic probe was positioned over the carotid artery at the point of insertion of the arterial catheter. Flow was recorded on a chart recorder using heat sensitive paper.

[6] = Hydrolysis under HPLC assay conditions; assay type: physicochemical; conditions: acid conditions / sample preparation of an HPLC assay
[7] = i.v. pharmacokinetics in rats; conditions: rat
Protocol: (§1) Rats, body weight circa 250-300g were used. The animals were fasted only on the day of use for the iv stage.
(§2) Just before administration, 5 volumes of this solution is mixed with 3 volumes of 5% kollidon 17 8F.
(§3) Both compounds were given at a dose of 1.0mg/kg iv.
(§4) The compounds were dosed in a PEG/ethanol/kollidon formulation which was prepared immediately before, as described immediately under the heading "Dose": Stock 15.0mg/ml. This was dosed at 1.33ml/kg (equivalent to 30mg/kg).
(§5) A pre dose sample was taken followed by: 0, 2, 5, 10, 20, 30, 40, 60 and 90 minutes post dose.
(§6) This was obtained by centrifugation (3000 RPM for 10 min) and stored at -20°C prior to analysis.

[8] = molecular target: T1, thrombin (Homo sapiens, UniProt P00734); test: Thrombin amidolytic assay (S2238, Vmax); assay type: biochemical; conditions: TRI 50b as external control; Fig. 1
T1 construct: purchased HTI, via Cambridge Bioscience
Protocol: Chromogenic substrate S2238 dissolved to 4mM (25mg + 10ml) in water. Diluted to 50uM with assay buffer for use in assay at 5µM. (S2238 is H-D-Phe-Pip-Arg-pNA).
Thrombin obtained from HTI, via Cambridge Bioscience, and aliquoted at 1mg/ml with assay buffer. Dilute to 100ng/ml with assay buffer and then a further 1 in 3 for use in the assay.
• 110µl assay buffer • 50ul 5µg/ml thrombin • 20µl vehicle or compound solution • 5 min at 37°C • 20µl 50µM S2238

[9] = rat, in vivo, iv, 1 mg/kg
Protocol: as §1, §2, §3, §4, §5, §6

[10] = Maximum aqueous solubility (shaken in water at 37°C, filtered, UV spectrum); assay type: physicochemical; conditions: read-out: Solubility when dissolved at 50mg/ml
[11] = dry (desiccator over phosphorus pentoxide for 1 week), listed as TRI 50c Na salt, monosodium salt
[12] = non-dried, listed as TRI 50c Na salt, monosodium salt
[13] = dry (desiccator over phosphorus pentoxide for 1 week)

SMILES: COCCC[C@H](NC(=O)[C@@H]1CCCN1C(=O)[C@@H](Cc1ccccc1)NC(=O)OCc1ccccc1)B(O)O [TRI 50c sodium salt, Cbz-(R)-Phe-(S)-Pro-(R)-Mpg-B(OH)2 monosodium salt]
Amount [1, 11]: 1024 µg/mL | Purity (% area) [1, 11]: 98.81 % area | Amount [1, 12]: 1005.8 µg/mL | Purity (% area) [1, 12]: 98.61 % area | thrombin time ([2]; 1.0 mg/kg i.v., 2 minutes post dose, base line 14.3 seconds, listed as sodium salt, monosodium salt, 1 mg/kg): 154.4 s | thrombin time ([2]; 1.0 mg/kg i.v., 2 minutes post dose, base line 14.3 seconds, monosodium salt, 1 mg/kg): 154 s | thrombin time ([2]; 1.0 mg/kg i.v., one hour post dose): 26 s | elevation in the APTT ([2]; 1.0 mg/kg i.v., post dose): 1.3 times | APTT ([2]; 1.0 mg/kg i.v., post dose, base line 19 seconds): 25 s | Thrombin clotting time elevation above base line ([2]; 1.0 mg/kg i.v., two minutes following dosing): 10.8 times | tolerability / adverse events ([2]; in vivo, iv, 1 mg/kg): tolerated well with no adverse events

pIC50 ([3]; agonist Collagen (23µg/ml), TRI 50b added 1 minute prior to activator, read-out: I C50 plus pre-incubation): 6.70 | pIC50 ([3]; agonist Collagen (23µg/ml), TRI 50b added after incubation with activator, read-out: I C50 without incubation): 6.52 | pIC50 ([3]; agonist Thrombin/Collagen, TRI 50b added 1 minute prior to activator, read-out: I C50 plus pre-incubation): 8.52 | pIC50 ([3]; agonist Thrombin/Collagen, TRI 50b added after incubation with activator, read-out: I C50 without incubation): 7.10 | bleeding ([5]; 3mg/kg to 10mg/kg iv): without bleeding | hydrolysis to the acid form (TRI 50c) [6]: short half life | Area under curve ([7]; 1.0mg/kg iv, n=3): 1.68 | Max Plasma Concentration (observed) ([7]; 1.0mg/kg iv, n=3): 2.24 | Vd ([7]; plasma, iv, 1 mg/kg): 0.5 L/kg
SMILES: COCCC[C@H](NC(=O)[C@@H]1CCCN1C(=O)[C@@H](Cc1ccccc1)NC(=O)OCc1ccccc1)B1OC(C)(C)C(C)(C)O1 [TRI 50b, Cbz-(R)-Phe-Pro-BoroMpg-OPinacol]
effect on ADP, collagen or epinephrine induced aggregation [4]: does not have an effect | THROMBUS WEIGHT AFTER 20 minute run ([5]; 3.0mg/kg iv): 15.3 ±2.2 mg(n=5) | THROMBUS WEIGHT AFTER 20 minute run ([5]; 10mg/kg iv): 9.78 ±1.9 mg(n=5)

SMILES: COCCC[C@H](NC(=O)[C@@H]1CCCN1C(=O)[C@@H](Cc1ccccc1)NC(=O)OCc1ccccc1)B(O)O [magnesium salt of TRI 50c]
activity in thrombin amidolytic assay [8]: the same activity as TRI 50b

SMILES: COCCC[C@H](NC(=O)[C@@H]1CCCN1C(=O)[C@@H](Cc1ccccc1)NC(=O)OCc1ccccc1)B(O)O [TRI 50c, Cbz-(R)-Phe-(S)-Pro-(R)-boroMpg-OH]
Purity (% area) [1, 13]: 82.00 % area | Amount [1, 13]: 1000.0 µg/mL | Area under curve [9]: 1.48 | Max Plasma Concentration (observed) [9]: 2.35 | Volume Distribution [9]: 0.59 L/kg

SMILES: COCCC[C@H](NC(=O)[C@@H]1CCCN1C(=O)[C@@H](Cc1ccccc1)NC(=O)OCc1ccccc1)B(O)O [lithium salt]
solubility [10]: 43 mg/mL

SMILES: COCCC[C@H](NC(=O)[C@@H]1CCCN1C(=O)[C@@H](Cc1ccccc1)NC(=O)OCc1ccccc1)B(O)O [TRI 50c Lys salt]
Purity (% area) [1, 13]: 90.17 % area | Amount [1, 13]: 813.3 µg/mL | Purity (% area) ([1]; non-dried): 92.25 % area | Amount ([1]; non-dried): 809.8 µg/mL
